Results on 12 molecules are retold here after ChEMBL document CHEMBL1143196, “Discovery of kinase inhibitors by high-throughput docking and scoring based on a transferable linear interaction energy model” (J Med Chem, 2008).

Data set [1] is described as follows: Half life in iv dosed rat. Format: ADME, organism-based. The settings on record: in vivo.
Data set [2] in a line: Plasma clearance in rat. Format: ADME, organism-based.
A short description of data set [3]: Volume of distribution in rat. Format: ADME, organism-based. Conditions: in vivo.
Another data set deals with Blood. In words: Suppression of TNFalpha production in LPS-stimulated whole blood. Format: functional, tissue-based. Conditions: Homo sapiens.
Data set [4] in a line: Oral bioavailability in rat. It is filed as ADME, organism-based. Conditions: in vivo.
Data set [5] deals with Tyrosine-protein kinase Lck (Homo sapiens, UniProt P06239).
Chain of Tyrosine-protein kinase Lck (P06239 whole entry): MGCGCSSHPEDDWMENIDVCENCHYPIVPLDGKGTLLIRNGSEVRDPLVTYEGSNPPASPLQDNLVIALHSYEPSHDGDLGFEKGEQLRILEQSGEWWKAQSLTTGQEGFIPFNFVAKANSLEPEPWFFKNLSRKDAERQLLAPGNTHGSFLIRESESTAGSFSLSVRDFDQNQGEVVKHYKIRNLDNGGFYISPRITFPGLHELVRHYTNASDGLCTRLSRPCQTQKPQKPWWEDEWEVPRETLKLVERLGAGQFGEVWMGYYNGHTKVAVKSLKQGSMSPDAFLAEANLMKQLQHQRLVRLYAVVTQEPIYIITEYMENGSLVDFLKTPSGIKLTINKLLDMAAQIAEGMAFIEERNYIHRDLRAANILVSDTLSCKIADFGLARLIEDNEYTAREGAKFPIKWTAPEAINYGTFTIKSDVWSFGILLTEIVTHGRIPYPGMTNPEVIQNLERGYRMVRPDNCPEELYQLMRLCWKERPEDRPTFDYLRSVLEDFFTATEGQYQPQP
Data set [6] addresses Cyclin-dependent kinase 2 (Homo sapiens, UniProt P24941). In words: Inhibition of CDK2 by FRET assay.
In data set [7] the target is Cyclin-dependent kinase 1/cyclin B1 (Homo sapiens, UniProt P06493). Briefly: Inhibition of CDK1/Cyclin B. It is filed as protein-complex assay.
Chain of Cyclin-dependent kinase 1/cyclin B1 (P06493 whole entry): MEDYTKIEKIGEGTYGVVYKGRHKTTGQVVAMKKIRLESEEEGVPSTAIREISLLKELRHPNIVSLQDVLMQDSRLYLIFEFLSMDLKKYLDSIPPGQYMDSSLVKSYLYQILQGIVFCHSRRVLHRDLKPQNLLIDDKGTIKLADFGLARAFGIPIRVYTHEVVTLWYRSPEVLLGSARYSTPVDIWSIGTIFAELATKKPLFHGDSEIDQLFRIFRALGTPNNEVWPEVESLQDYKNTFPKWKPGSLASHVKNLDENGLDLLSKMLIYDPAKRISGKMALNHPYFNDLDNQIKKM
Chain of Cyclin-dependent kinase 1/cyclin B1 (P14635 whole entry, further chain): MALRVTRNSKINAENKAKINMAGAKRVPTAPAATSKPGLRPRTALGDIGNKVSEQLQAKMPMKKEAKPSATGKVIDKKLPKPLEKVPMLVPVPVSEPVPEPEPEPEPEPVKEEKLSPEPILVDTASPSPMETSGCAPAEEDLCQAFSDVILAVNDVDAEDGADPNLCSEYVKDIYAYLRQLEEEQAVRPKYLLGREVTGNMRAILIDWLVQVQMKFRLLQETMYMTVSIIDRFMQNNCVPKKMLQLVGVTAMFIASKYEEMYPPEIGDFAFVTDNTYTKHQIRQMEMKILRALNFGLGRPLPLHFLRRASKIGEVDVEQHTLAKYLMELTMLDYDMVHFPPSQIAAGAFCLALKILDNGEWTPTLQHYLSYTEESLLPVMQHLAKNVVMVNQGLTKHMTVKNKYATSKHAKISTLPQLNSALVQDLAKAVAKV
Data set [8] can be described thus: Inhibition of CDK2/Cyclin A.
The target of another data set is T1, Ephrin type-B receptor 4 (Homo sapiens, UniProt P54760).
T1 sequence (P54760 whole entry): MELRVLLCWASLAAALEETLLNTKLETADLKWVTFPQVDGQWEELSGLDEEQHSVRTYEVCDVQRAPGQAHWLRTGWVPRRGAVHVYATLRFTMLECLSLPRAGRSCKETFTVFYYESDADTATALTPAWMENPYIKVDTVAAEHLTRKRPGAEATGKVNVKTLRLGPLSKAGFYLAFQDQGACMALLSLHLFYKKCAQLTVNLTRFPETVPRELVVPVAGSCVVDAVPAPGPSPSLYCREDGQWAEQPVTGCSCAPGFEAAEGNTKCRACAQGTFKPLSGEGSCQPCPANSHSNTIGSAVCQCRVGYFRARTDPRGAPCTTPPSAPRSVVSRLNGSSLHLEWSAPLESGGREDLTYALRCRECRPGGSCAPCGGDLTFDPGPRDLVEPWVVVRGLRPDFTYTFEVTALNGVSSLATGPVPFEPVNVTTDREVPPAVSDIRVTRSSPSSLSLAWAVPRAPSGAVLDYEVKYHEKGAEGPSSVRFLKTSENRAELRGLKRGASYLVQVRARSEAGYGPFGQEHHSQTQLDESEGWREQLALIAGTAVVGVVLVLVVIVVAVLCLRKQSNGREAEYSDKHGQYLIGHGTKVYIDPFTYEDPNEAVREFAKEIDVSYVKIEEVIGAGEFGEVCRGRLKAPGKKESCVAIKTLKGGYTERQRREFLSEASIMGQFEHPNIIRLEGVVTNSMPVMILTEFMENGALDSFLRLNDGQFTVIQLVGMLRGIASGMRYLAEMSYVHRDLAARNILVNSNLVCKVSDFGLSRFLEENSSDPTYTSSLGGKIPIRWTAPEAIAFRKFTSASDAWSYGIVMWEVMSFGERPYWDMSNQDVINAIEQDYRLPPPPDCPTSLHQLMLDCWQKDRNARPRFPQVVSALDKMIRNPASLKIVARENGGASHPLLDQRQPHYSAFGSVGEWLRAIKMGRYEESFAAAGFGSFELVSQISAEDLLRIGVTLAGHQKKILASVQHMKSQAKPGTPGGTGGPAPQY

In data set [9] the target is Mitogen-activated protein kinase 14 (Homo sapiens) (UniProt Q16539). Briefly: Inhibition of p38alpha at 1000 nM.
Chain of Mitogen-activated protein kinase 14 (Homo sapiens) (Q16539 whole entry): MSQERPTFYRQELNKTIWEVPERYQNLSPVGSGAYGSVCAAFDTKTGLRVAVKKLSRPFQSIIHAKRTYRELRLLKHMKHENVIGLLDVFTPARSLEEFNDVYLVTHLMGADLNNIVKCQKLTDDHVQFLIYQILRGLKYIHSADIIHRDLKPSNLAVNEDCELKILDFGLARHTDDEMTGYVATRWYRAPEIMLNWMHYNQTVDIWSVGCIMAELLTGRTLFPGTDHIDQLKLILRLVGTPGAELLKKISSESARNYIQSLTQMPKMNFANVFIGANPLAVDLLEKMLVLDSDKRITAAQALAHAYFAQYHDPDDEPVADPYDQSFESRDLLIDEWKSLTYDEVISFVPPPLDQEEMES
Data set [10] in a line: Inhibition of CDK2/Cyclin A at 100 uM.
Data set [11] concerns the target Cyclin-dependent kinase 1/cyclin B1 (Homo sapiens) (UniProt P06493+P14635). In words: Inhibition of CDK1/Cyclin B at 100 uM. It is filed as protein-complex assay.

SMILES strings stand for the structures.

Chain of Cyclin-dependent kinase 1/cyclin B1 (Homo sapiens) (P06493 whole entry, looked up): as the sequence (P06493 whole entry) above
Chain of Cyclin-dependent kinase 1/cyclin B1 (Homo sapiens) (P14635 whole entry, looked up): as the sequence (P14635 whole entry, further chain) above

As usually defined, the half-life is how long it takes for the measured level to halve. A higher half-life goes with slow decline. The clearance is a measure of how efficiently the substance is removed, as volume per time. Read a high clearance as efficient removal. As usually defined, the Vd is a proportionality between amount in the body and measured concentration, not a real space. In general, IC50 refers to the point on the concentration scale where inhibition reaches its midpoint. A high value points to a need for much substance. Broadly, the bioavailability is dose-corrected exposure relative to a reference, in per cent. Low values mean little systemic uptake, high ones much systemic uptake. Regarding `CCC1(N2CCC(c3cc(-c4ccc(F)cc4Cl)c4c(c3)N(c3c(Cl)cccc3Cl)C(=O)NC4)CC2)CC1`, the half-life in data set [1] is 2 h. The molecule also returned a clearance in data set [2] of 31.1 mL/min/kg. In data set [3], this molecule had a Vd of 4.7 L/kg. In the data set on Blood, 7 nM corresponded to half-maximal inhibition (IC50). The same molecule displayed a bioavailability in data set [4] of 38%.

In [5], `Cc1ccccc1NC(=O)c1nc2ccccc2n2cncc12` returned an IC50 greater than 12500 nM.

In turn, `NC(=O)c1c(NC(=O)CN2C(=O)CCC2=O)sc2c1CCC2` displayed an IC50 in data set [6] of 7500 nM.

`O=C(Nc1c(Cl)cccc1Cl)c1nc2ccccc2n2cncc12` returned an IC50 in data set [5] of 810 nM.

In the case of `O=C(Nc1ccccc1Br)c1nc2ccccc2n2cncc12`, it took 60 nM to reach half-maximal inhibition in data set [5] (IC50).

`CCOC(C)(COc1nc(N)nc2[nH]cnc12)OCC`: the figures for the IC50 in [7] and in [8] were 36000 nM and 33000 nM, respectively.

Regarding `Cn1c(=O)[nH]c(=O)c2c1nc1n(CCCCO)c(-c3ccccc3)cn21`, on Ephrin type-B receptor 4, half-maximal inhibition (IC50) was put at 1600 nM.

As usually defined, the inhibition is the share of the control response that was lost under treatment. The low end stands for little suppression, the high end for strong suppression. With `COC(=O)c1cc(Br)c2c(c1)N(c1c(Cl)cccc1Cl)C(=O)NC2`, the inhibition in data set [9] came to 0%.

With `CC1(N2CCC(c3cc(-c4ccc(F)cc4Cl)c4c(c3)N(c3c(Cl)cccc3Cl)C(=O)NC4)CC2)CC1`, in data set [1], the half-life is 1.9 h. In [2], this molecule registered a clearance of 50.9 mL/min/kg. The molecule further came in with a Vd in data set [3] of 6.3 L/kg. In the data set with Blood, this molecule showed a half-maximal inhibitory concentration (IC50) of 7.6 nM. In [4], the bioavailability came to 22.6%.

As for `Nc1nc(OC[C@@H]2COC3(CCCCC3)O2)c2nc[nH]c2n1`, the inhibition in data set [10] turned out to be 29%; in data set [11], 26%.

For the molecule `CC1(N2CCC(c3cc(-c4ccc(F)cc4Cl)c4c(c3)N(c3c(Cl)cccc3Cl)C(=O)NC4)CC2)CCC1`, the half-life in [1] is 1.6 h. Moreover, the clearance in [2] is 24.2 mL/min/kg. In [3], this molecule yielded a Vd of 2.5 L/kg. In addition, in the data set on Blood, the midpoint of inhibition, the IC50, lay at 27.1 nM. Moreover, the bioavailability in data set [4] is 11.6%.

On to `COC(=O)c1ccc2c(c1)N(c1c(Cl)cccc1Cl)C(=O)NC2`, for which the inhibition in data set [9] came out at 0%.
